Values of other authors as cited in patent US20110033506A1, “COMBINATION DOSAGE FORM OF LOW-DOSE MODAFINIL AND LOW-DOSE SILDENAFIL” (priority 2008, published 2011).

System: hamsters
Conditions: Agostino et al, PNAS 2007

## CCCc1nn(C)c2c(=O)[nH]c(-c3cc(S(=O)(=O)N4CCN(C)CC4)ccc3OCC)nc12.O=C(O)CC(O)(CC(=O)O)C(=O)O [Sildenafil, 1-[[3-(6,7-dihydro-1-methyl-7-oxo-3-propyl-1H-pyrazolo[4,3-d]pyrimidin-5-yl)-4-ethoxyphenyl]sulfonyl]-4-methylpiperazine]
  re-establishing disrupted circadian rhythms (jet lag): effective in re-establishing disrupted circadian rhythms
